pIC50, pKd: −log10 of the molar value. Like-named read-outs stand apart in the source and are kept apart here.
Legend:
[1] = target: human RORγt ligand binding domain (RORγt LBD) (Homo sapiens (Human), UniProt P51449); experiment: RORγt ThermoFluor® assay (thermal shift binding); details: read-out: ThermoFluor® Assay, Kd
How it was run: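 Binding was inferred from thermal stabilisation (ΔTm) of the E. coli-expressed RORγt LBD (0.065 mg/mL), monitored by 1,8-ANS (60 μM) emission at 500 nm during a 1 °C/min ramp. Buffer was Hepes 100 mM pH 7.0 with NaCl, GSH and Tween-20.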

full-length human RORγt = full-length human RORγt (Homo sapiens (Human), UniProt P51449); experiment: RORγt (full-length human) reporter assay, Conditions B or C; type: cell-based; details: for RORγt (FL) Reporter Assay B or C, % inhibition (value marked *): marked *: footnote not given; for pIC50: read-out: RORγt (FL) Reporter Assay B or C, IC50; for inhibition at 3 µM: at 3 μM compound concentration, read-out: RORγt (FL) Reporter Assay B or C, % inhibition
Chain of full-length human RORγt (P51449 other isoform, or with tags, fused parts or gaps): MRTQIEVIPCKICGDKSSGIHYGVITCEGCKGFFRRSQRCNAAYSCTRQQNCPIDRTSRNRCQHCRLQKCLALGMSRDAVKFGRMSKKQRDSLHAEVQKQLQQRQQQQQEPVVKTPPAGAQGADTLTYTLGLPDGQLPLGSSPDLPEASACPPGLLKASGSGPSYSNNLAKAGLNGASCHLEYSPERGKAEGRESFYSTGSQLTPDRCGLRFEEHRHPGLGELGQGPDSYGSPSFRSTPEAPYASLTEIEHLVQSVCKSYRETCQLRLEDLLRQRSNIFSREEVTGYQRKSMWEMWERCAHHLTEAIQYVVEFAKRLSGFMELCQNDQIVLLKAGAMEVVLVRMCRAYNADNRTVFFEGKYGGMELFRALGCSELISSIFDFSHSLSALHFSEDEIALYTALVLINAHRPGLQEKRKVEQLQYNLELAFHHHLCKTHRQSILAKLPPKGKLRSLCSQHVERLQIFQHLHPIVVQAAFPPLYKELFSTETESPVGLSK
How it was run: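 Readout is dual luciferase: firefly (GAL4-driven) normalized to DMSO-only and saturating-reference controls, then to CMV-Renilla. Full-length human RORγt fused to GAL4-DBD was transiently expressed in HEK293T; compound exposure ran overnight (16-20 h) starting 4-6 h after transfection, final FBS 1.3%, DMSO 0.1%.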

Chain of human RORγt ligand binding domain (RORγt LBD) (P51449 other isoform, or with tags, fused parts or gaps): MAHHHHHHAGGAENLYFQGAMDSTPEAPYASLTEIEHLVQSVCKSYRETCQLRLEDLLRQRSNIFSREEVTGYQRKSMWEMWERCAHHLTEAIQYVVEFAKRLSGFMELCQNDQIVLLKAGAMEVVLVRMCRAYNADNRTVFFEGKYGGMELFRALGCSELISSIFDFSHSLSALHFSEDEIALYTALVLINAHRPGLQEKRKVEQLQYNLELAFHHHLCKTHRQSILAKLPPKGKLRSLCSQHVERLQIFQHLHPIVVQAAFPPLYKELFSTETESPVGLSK

Compound	pKd [1]	pIC50 (full-length human RORγt; Conditions B or C)	RORγt (FL) Reporter Assay B or C, % inhibition (value marked ***) (full-length human RORγt; Conditions B or C, marked ***: footnote not given)	inhibition at 3 µM (full-length human RORγt) [%]	pIC50 (full-length human RORγt)	RORγt (FL) Reporter Assay B or C, % inhibition (value marked *) (full-length human RORγt; Conditions B or C)
CC[C@H](Nc1cc(C(F)F)c(-c2sc(C(=O)N[C@H](C)C(C)(C)O)nc2C(=O)N2C3CCC2CC3)cn1)C(F)(F)F [Example 242, 4-((1s,4s)-7-Azabicyclo[2.2.1]heptane-7-carbonyl)-5-[4-(difluoromethyl)-6-[[(1S)-1-(trifluoromethyl)propyl]amino]-3-pyridyl]-N-[(1R)-2-hydroxy-1,2-dimethyl-propyl]thiazole-2-carboxamide]	8.55	7.82				86* %
CC[C@H](Nc1cc(C(F)F)c(-c2sc(C(=O)N[C@@H](C)C(C)(C)O)nc2C(=O)N2C3CCC2CC3)cn1)C(F)(F)F [Example 248]	8.47	7.80				102* %
C[C@H]1CCCN1C(=O)c1nc(C(=O)N2CC(CO)C2)sc1-c1cnc(NC(C)(C)C)cc1C(F)(F)F [Example 249, [5-[6-(tert-Butylamino)-4-(trifluoromethyl)-3-pyridyl]-2-[3-(hydroxymethyl)azetidine-1-carbonyl]thiazol-4-yl]-[(2S)-2-methylpyrrolidin-1-yl]methanone]	8.09			103	7.62	
C[C@H]1CCCN1C(=O)c1nc(C(=O)N2CC(O)C2)sc1-c1cnc(NC(C)(C)C)cc1C(F)(F)F [Example 250, [5-[6-(tert-Butylamino)-4-(trifluoromethyl)-3-pyridyl]-2-(3-hydroxyazetidine-1-carbonyl)thiazol-4-yl]-[(2S)-2-methylpyrrolidin-1-yl]methanone]	8.09			106	7.55	
C[C@H]1CCCN1C(=O)c1nc(C(=O)N[C@H]2C[C@@H](O)C2)sc1-c1cnc(NC(C)(C)C)cc1C(F)(F)F [Example 251, 5-[6-(tert-Butylamino)-4-(trifluoromethyl)-3-pyridyl]-N-((1s,3R)-3-hydroxycyclobutyl)-4-[(2S)-2-methylpyrrolidine-1-carbonyl]thiazole-2-carboxamide]	7.68			104	7.14	
C[C@H]1CCCN1C(=O)c1nc(C(=O)NC2(C)COC2)sc1-c1cnc(NC(C)(C)C)cc1C(F)(F)F [Example 253, 5-[6-(tert-Butylamino)-4-(trifluoromethyl)-3-pyridyl]-N-(3-methyloxetan-3-yl)-4-[(2S)-2-methylpyrrolidine-1-carbonyl]thiazole-2-carboxamide]	8.72			108	8.11	
C[C@H]1CC(F)(F)CN1C(=O)c1nc(C(=O)N[C@H](C)C(C)(C)O)sc1-c1cnc(NC(C)(C)C)cc1C(F)F [Example 256, 5-[6-(tert-Butylamino)-4-(difluoromethyl)-3-pyridyl]-4-[(2S)-4,4-difluoro-2-methyl-pyrrolidine-1-carbonyl]-N-[(1R)-2-hydroxy-1,2-dimethyl-propyl]thiazole-2-carboxamide]	8.77			123	7.70	
C[C@H](NC(=O)c1nc(C(=O)N2CC(F)(F)C[C@@H]2C)c(-c2cnc(NC(C)(C)C)cc2C(F)F)s1)C(C)(C)O [Example 257, 5-[6-(tert-Butylamino)-4-(difluoromethyl)-3-pyridyl]-4-[(2S)-4,4-difluoro-2-methyl-pyrrolidine-1-carbonyl]-N-[(1S)-2-hydroxy-1,2-dimethyl-propyl]thiazole-2-carboxamide]	8.74			98	7.51	
C[C@H]1CCCN1C(=O)c1nc(C(=O)N[C@H]2C[C@H](O)C2)sc1-c1cnc(NC(C)(C)C)cc1C(F)(F)F [Example 258, 5-[6-(tert-Butylamino)-4-(trifluoromethyl)-3-pyridyl]-N-((1r,3S)-3-hydroxycyclobutyl)-4-[(2S)-2-methylpyrrolidine-1-carbonyl]thiazole-2-carboxamide]	8.46			110	7.19	
C[C@H]1CCCN1C(=O)c1nc(C(=O)NC2COC2)sc1-c1cnc(NC(C)(C)C)cc1C(F)(F)F [Example 259, 5-[6-(tert-Butylamino)-4-(trifluoromethyl)-3-pyridyl]-4-[(2S)-2-methylpyrrolidine-1-carbonyl]-N-(oxetan-3-yl)thiazole-2-carboxamide]	8.52			101	7.60	
C[C@H]1CCCN1C(=O)c1nc(C(=O)NC2(CO)COC2)sc1-c1cnc(NC(C)(C)C)cc1C(F)(F)F [Example 261, 5-[6-(tert-Butylamino)-4-(trifluoromethyl)-3-pyridyl]-N-[3-(hydroxymethyl)oxetan-3-yl]-4-[(2S)-2-methylpyrrolidine-1-carbonyl]thiazole-2-carboxamide]	8.59			104	7.64	
C[C@H]1CCCN1C(=O)c1nc(C(=O)NC2(CO)CCC2)sc1-c1cnc(NC(C)(C)C)cc1C(F)(F)F [Example 262, 5-[6-(tert-Butylamino)-4-(trifluoromethyl)-3-pyridyl]-N-[1-(hydroxymethyl)cyclobutyl]-4-[(2S)-2-methylpyrrolidine-1-carbonyl]thiazole-2-carboxamide]	8.80			104	7.70	
C[C@H]1CCCN1C(=O)c1nc(C(=O)NCC(O)(C(F)(F)F)C(F)(F)F)sc1-c1cnc(NC(C)(C)C)cc1C(F)F [Example 264, 5-[6-(tert-Butylamino)-4-(difluoromethyl)-3-pyridyl]-4-[(2S)-2-methylpyrrolidine-1-carbonyl]-N-[3,3,3-trifluoro-2-hydroxy-2-(trifluoromethyl)propyl]thiazole-2-carboxamide]	8.31			112	7.55	
C[C@H]1CCCN1C(=O)c1nc(C(=O)NCC(C)(C)O)sc1-c1cnc(NC(C)(C)C)cc1C(F)F [Example 265, 5-[6-(tert-Butylamino)-4-(difluoromethyl)-3-pyridyl]-N-(2-hydroxy-2-methyl-propyl)-4-[(2S)-2-methylpyrrolidine-1-carbonyl]thiazole-2-carboxamide]	8.19			98	7.12	

More lines, in order of rising pKd [1], values ahead:

pKd [1]	pIC50 (full-length human RORγt; Conditions B or C)	RORγt (FL) Reporter Assay B or C, % inhibition (value marked ***) (full-length human RORγt; Conditions B or C, marked ***: footnote not given)	inhibition at 3 µM (full-length human RORγt) [%]	pIC50 (full-length human RORγt)	Compound	RORγt (FL) Reporter Assay B or C, % inhibition (value marked *) (full-length human RORγt; Conditions B or C)
8.80	7.59				CC[C@H](Nc1cc(C(F)F)c(-c2sc(C(=O)N[C@H](C)C(C)(C)O)nc2C(=O)N2CC(F)(F)C[C@@H]2C)cn1)C(F)(F)F [Example 245, 4-[(2S)-4,4-Difluoro-2-methyl-pyrrolidine-1-carbonyl]-5-[4-(difluoromethyl)-6-[[(1S)-1-(trifluoromethyl)propyl]amino]-3-pyridyl]-N-[(1R)-2-hydroxy-1,2-dimethyl-propyl]thiazole-2-carboxamide]	98* %
8.89	7.96	112*** %			CC[C@H](Nc1cc(C(F)F)c(-c2sc(C(=O)N[C@@H](C)C(C)(C)O)nc2C(=O)N2CC(F)(F)C[C@@H]2C)cn1)C(F)(F)F [Example 246, 4-[(2S)-4,4-Difluoro-2-methyl-pyrrolidine-1-carbonyl]-5-[4-(difluoromethyl)-6-[[(1S)-1-(trifluoromethyl)propyl]amino]-3-pyridyl]-N-[(1S)-2-hydroxy-1,2-dimethyl-propyl]thiazole-2-carboxamide]	
8.92			106	7.46	CC[C@H](Nc1cc(C(F)F)c(-c2sc(C(=O)NC3CCCC3O)nc2C(=O)N2CCC[C@@H]2C)cn1)C(F)(F)F (stereo partly drawn) [Example 252, 5-(4-(Difluoromethyl)-6-(((S)-1,1,1-trifluorobutan-2-yl)amino)pyridin-3-yl)-N-(cis-2-hydroxycyclopentyl)-4-((S)-2-methylpyrrolidine-1-carbonyl)thiazole-2-carboxamide]	
8.96			107	8.18	C[C@H]1CCCN1C(=O)c1nc(C(=O)NC2(CO)CC2)sc1-c1cnc(NC(C)(C)C)cc1C(F)(F)F [Example 263, 5-[6-(tert-Butylamino)-4-(trifluoromethyl)-3-pyridyl]-N-[1-(hydroxymethyl)cyclopropyl]-4-[(2S)-2-methylpyrrolidine-1-carbonyl]thiazole-2-carboxamide]	
9.15			112	7.85	C[C@H]1CCCN1C(=O)c1nc(C(=O)NC2CS(=O)(=O)C2)sc1-c1cnc(NC(C)(C)C)cc1C(F)(F)F [Example 260, 5-[6-(tert-Butylamino)-4-(trifluoromethyl)-3-pyridyl]-N-(1,1-dioxothietan-3-yl)-4-[(2S)-2-methylpyrrolidine-1-carbonyl]thiazole-2-carboxamide]	
9.55	7.64				CC[C@H](Nc1cc(C(F)F)c(-c2sc(C(=O)N[C@@H](C)C(C)(C)O)nc2C(=O)N2CCCC[C@@H]2C)cn1)C(F)(F)F [Example 247, 5-[4-(Difluoromethyl)-6-[[(1S)-1-(trifluoromethyl)propyl]amino]-3-pyridyl]-N-[(1S)-2-hydroxy-1,2-dimethyl-propyl]-4-[(2S)-2-methylpiperidine-1-carbonyl]thiazole-2-carboxamide]	100* %
9.60			107	7.80	C[C@H]1CCCN1C(=O)c1nc(C(=O)NC2CCS(=O)(=O)CC2)sc1-c1cnc(NC(C)(C)C)cc1C(F)(F)F [Example 254, 5-[6-(tert-Butylamino)-4-(trifluoromethyl)-3-pyridyl]-N-(1,1-dioxothian-4-yl)-4-[(2S)-2-methylpyrrolidine-1-carbonyl]thiazole-2-carboxamide]	

From patent US10975068B2, “6-aminopyridin-3-yl thiazoles as modulators of RORγT” (Janssen Pharmaceutica NV, priority 2016, dated 2021)
